US8765726B2, “Use of pyridone derivatives in the prevention or treatment of tissue or organ toxicity induced by cytotoxic agents and radiation” (Shanghai Genomics, Inc., priority 2006, dated 2014)

Tests used:
[1] = system: Adriamycin-induced renal toxicity; assay: Adriamycin-induced renal toxicity in rats (urine proteins, renal pathology); type: in vivo, Wistar rats; settings: Adriamycin 7.5 mg/kg tail vein day 1, F351 250 mg/kg per day gavage for 12 weeks
Description: (§1) 20 male Wistar rats (with body weight 180-220 g) were randomly divided into three groups with 4 rats in control group, 8 rats in Adriamycin-treated group, and 8 rats in Adriamycin+F351-treated group. All the animals (except for those in control group) were injected with 7.5 mg/kg adriamycin by tail vein injection on day 1 of the study. Animals in Adriamycin+F351-treated group were administrated by gauvage with 250 mg/kg F351 per day for 12 weeks starting on day 1 of the study. Animals in the control group were injected with PBS, instead. The study lasted for 12 weeks.
Rat urine was collected 24 hours before the end of the study and amount of urine proteins was determined. Renal tissues were also collected for pathology examination.
as §1, with “injection at” for “injection on”, “study. Animals in control group were injected with PBS instead.” for “study.”, “day 1.” for “day 1 of the study. Animals in the control group were injected with PBS, instead. The study lasted for 12 weeks.”

[2] = system: radiation-induced lung injuries; assay: Example 1 repeated with F351 on radiation-induced lung injuries; type: in vivo; settings: Prophylactic and therapeutic administration, irradiated mice, twenty per group; 'should show'
Description: The experiments in Example 1 are repeated, except that 5-methylpyridin-1(4-hydroxyphenyl)-2-(1H)-one (F351) rather than Pirfenidone is used, with twenty mice in each group.

[3] = system: Cyclosporine A-induced nephrotoxicity; assay: Cyclosporine A-induced nephrotoxicity in rats (mean arterial pressure, kidney fibrosis score); type: in vivo, Wistar rats; settings: CsA 15 mg/kg subcutaneous + F351 100 mg/Kg/day, once a day for 28 days, low salt diet
Description: 24 male Wistar rats (with body weight 180-220 g) were given low salt diet for 7 days before the study and randomly divided into three groups with 8 rats per group. The groups were named as control group, cyclosporine A (CsA)-treated group, and CsA+[…]-treated group. [table] The animals were treated once a day for 28 days as indicated in the above table. Once every 7 days, the animals were weighed and the dose of CsA and […] were adjusted in terms of body weight. Low salt diet was given to the animals during the whole study period. Mean arterial pressure was determined in alert state of the animals at the end of the study. Renal tissues were also collected for pathology examination.

[4] = system: Bleomycin-induced lung fibrosis; assay: Bleomycin-induced lung fibrosis in mice (pathology, lung index); type: in vivo, C57B6 mice; settings: Bleomycin 5 mg/kg intratracheal day 1, F351 100 mg/kg/day or dexamethasone 3 mg/kg per day gavage for 28 days
Description: Forty eight (48) C57B6 mice (with body weight 16-18 g), half male and half female, were used in the study. Animals were divided into four groups with 12 animals per group. All the animals (except for those in control group) were injected with 5 mg/kg Bleomycin in the volume of 50 ul by intratracheal instillation on day 1 of the study. Animals in control group were injected by PBS instead. […] Pathology examination was performed at day 28.

[5] = system: radiation-induced lung fibrosis; assay: Prevention and/or treatment of radiation-induced lung fibrosis in mice (macrophages, fibrosis evaluation, hydroproline); type: in vivo, BalB/C male mice; settings: for Cytometry of macrophages / Evaluation on lung fibrosis / Hydroproline level: P + R group: 200 mg/kg/day from two days before 1200 cGy chest radiation for 12 weeks
Description: BalB/C male mice were randomly divided into three groups, namely, Control group (C group), Radiation group (R group), and Pirfenidone+Radiation (P+R group). All the animals were given single dose radiation on chest at 1200 cGy. Drugs were administrated two days before radiation for 12 weeks at 200 mg/kg/day. Examination includes cytometry of macrophages (performed 4 weeks and 8 weeks after drug administration), determination of hydroproline level (performed 16 weeks and 24 weeks after drug administration), and pathology examination of lung tissues by HE staining and Masson staining and evaluation of lung fibrosis by Ashcroft semi-quantitative evaluation standard under a microscope (performed 16 weeks and 24 weeks after drug administration).

[6] = Blood level of Pirfenidone capsule in healthy subjects on repeated dosing; type: in vivo, human; settings: Twelve healthy subjects, capsule 400 mg once a day or three times a day for 5 days
Description: Twelve healthy subjects were administered with Pirfenidone capsule at the dose of 400 mg, once a day or three times a day. The medication continued for 5 days. The blood level of the medicine was measured every day.

[7] = system: radiation-induced lung injuries; assay: Tolerance to the therapeutic irradiation dosage, prophylactic Pirfenidone in irradiated mice; type: in vivo; settings: Prophylactic administration, 200 mg/kg gavage once a day started 2 days before irradiation
Description: (a) Method: the Same as Described in Example 1. Prophylaxis group (60 mice): The medication was started 2 days before the irradiation. The mice were divided into two groups. The animals were administered by gauvage with Pirfenidone (200 mg/kg, dissolved in 0.5% CMC-Na and administrated at the volume of 0.1 ml/10 g) once a day for 3 months. Each group consisted of 60 mice. The mice of each group were observed once a day after irradiation to examine the dyspnea and mortality. The lung weighing, cytometry and cell sorting of the bronchial alveolar lavage liquid, collagen content measurement (hydroxyproline), measurement of cytokines (ACE, TGF-β, TGF-α etc) in the plasma, and pathomorphological observation were conducted periodically after the medicament treatment.

[8] = system: radiation-induced lung injuries; assay: Radiation-induced lung injuries in mice (bronchial alveolar lavage cell count, whole-lung hydroxyproline); type: in vivo, BALB/C mice; parameters: unit not given here; settings: 1200 cGy chest
Description: Irradiation source: Varian 600C linear accelerator, 6MV X ray
Irradiation method: The mice, six per row, were each detained in an organic-glass cage. The cage was lid with a 1.5 cm thick organic glass plate to compensate the buildup effect. The source-to-skin distance was 100 cm, the irradiation field was 2.5×18 cm. The animal's head and abdomen were sheltered by the lead baffle of the collimator, and thus only the chest was exposed to the irradiation. The single dose of irradiation is 1200 cGy. A sealed transfer box equipped with an air filtering device should be used to transfer the animals from or back to the animal house.
Animals: 10-week old BALB/C mice
Control Model group (60 mice): The mice were irradiated but not treated with the compound.
(§2) Prophylaxis group (60 mice): The medication at a predetermined dose was started 2 days before the irradiation. The irradiation method and the dosage were the same as in the control group. Pirfenidone was administered by gauvage (200 mg/kg, dissolved in 0.5% CMC-Na and administrated at the volume of 0.1 ml/10 g) once a day for 3 months.
as §2, with “Treatment” for “Prophylaxis”, “medication” for “medication at a predetermined dose”, “at day 0 of” for “2 days before”, “and” for “and the”
Blank control group (60 mice): The mice were not irradiated, and were only administered by gauvage with 0.5% CMC-Na once a day for 3 months.
The mice of each group were observed once a day after irradiation to examine the mortality. The cytometry and cell sorting of the lavage, collagen content measurement (hydroxyproline), pathomorphological observation were conducted periodically after medicament treatment.
Cytometry of the bronchial alveolar lavage liquid: the right lung was perfused with normal saline. 1.5-2.0 ml lavage liquid was collected into an Ependoff tube by gentle suction. The content of the inflammatory cells was counted manually by use of a haemocytometer immediately after collection of the bronchial alveolar lavage liquid.
Measurement of the hydroxyproline content: The measurement was performed with isolated lung tissue by following the instruction in the hydroxyproline kit.
Histopathologic examination: The isolated lung tissue was fixed in formaldehyde solution, pafarrin-imbeded after dehydration, and then subjected to HE staining and Masson trichrome staining. Evaluation criteria: Radiation-induced lung injuries was evaluated according to the standard semi-quantitative scoring of the Ashcroft interstitial pulmonary fibrosis.

[9] = system: bleomycin-induced lung fibrosis; assay: Bleomycin-induced lung fibrosis in rat: side effects of dexamethasone compared with pirfenidone
Description: Dexamethasone treatment was used as positive control in one study was designed to investigate the effects of pirfenidone on bleomycin-induced lung fibrosis in rat.

[10] = Prophylaxis group: 200 mg/kg gavage once a day started 2 days before irradiation, Month 2
[11] = Prophylaxis group: 200 mg/kg gavage once a day started 2 days before irradiation, Month 3
[12] = Prophylaxis group: 200 mg/kg gavage once a day started 2 days before irradiation, Month 4
[13] = Prophylaxis group: 200 mg/kg gavage once a day started 2 days before irradiation, Month 5
[14] = Prophylaxis group: 200 mg/kg gavage once a day started 2 days before irradiation, Month 6
[15] = Treatment group: 200 mg/kg gavage once a day from day 0 of irradiation, Month 2
[16] = Treatment group: 200 mg/kg gavage once a day from day 0 of irradiation, Month 3
[17] = Treatment group: 200 mg/kg gavage once a day from day 0 of irradiation, Month 4
[18] = Treatment group: 200 mg/kg gavage once a day from day 0 of irradiation, Month 5
[19] = Treatment group: 200 mg/kg gavage once a day from day 0 of irradiation, Month 6
[20] = Bleomycin-treated rats plus test drug

Cc1ccc(=O)n(-c2ccc(O)cc2)c1 [F351, 5-methyl-1-(4-hydroxylphenyl)-2-(1H)-pyridone]
Degree of kidney fibrosis by pathology examination [1]: reduced the degree of kidney fibrosis
Amount of Urine Proteins ([1]; x ± s): 54.32 ± 10.88 mg/24 hrs
Amount of inflammatory cells in the bronchial alveolar lavage liquid [2]: reduce the amount of inflammatory cells
Score on Kidney Fibrosis [3]: 0.62 ± 0.15
Mean Arterial Pressure ([3]; x ± s): 16.02 ± 0.27 kPa
Lung Index (±S) [4]: 1511.71 ± 945.55
Pathological changes of the lung (pathology examination, HE and Masson staining) ([4]; day 28): significant improvement

Cc1ccc(=O)n(-c2ccccc2)c1 [Pirfenidone]
Toxic effect on BalB/C mice ([5]; 200 mg/kg/day for 12 weeks): little toxic effect
Cytometry of macrophages ([5]; 4 weeks): 6.67 ± 2.04 1 × 10^4/ml
Cytometry of macrophages ([5]; 8 weeks): 2.27 ± 1.41 1 × 10^4/ml
Evaluation on lung fibrosis ([5]; 16 weeks): 29.15 ± 18.74
Hydroproline level ([5]; 16 weeks): 67.65 ± 11.99 µg/mg
Evaluation on lung fibrosis ([5]; 24 weeks): 19.46 ± 6.67
Hydroproline level ([5]; 24 weeks): 79.15 ± 10.90 µg/mg
Day on which blood stasis was achieved (blood level of the medicine) [6]: 3 days
Cell count in the bronchial alveolar lavage liquid versus control group [7]: lower than that of the control group
Measurement of hydroxyproline in the whole lung ([8]; Prophylaxis group: 200 mg/kg gavage once a day started 2 days before irradiation, Month 1): 43.85
Cell count of bronchial alveolar lavage liquid [8, 10]: 2.27
Measurement of hydroxyproline in the whole lung [8, 10]: 43.81
Cell count of bronchial alveolar lavage liquid [8, 11]: 2.03
Measurement of hydroxyproline in the whole lung [8, 11]: 50.46
Cell count of bronchial alveolar lavage liquid [8, 12]: 4.5
Measurement of hydroxyproline in the whole lung [8, 12]: 56.98
Cell count of bronchial alveolar lavage liquid [8, 13]: 27.7
Measurement of hydroxyproline in the whole lung [8, 13]: 58.1
Cell count of bronchial alveolar lavage liquid [8, 14]: 15
Measurement of hydroxyproline in the whole lung [8, 14]: 58.15
Measurement of hydroxyproline in the whole lung ([8]; Treatment group: 200 mg/kg gavage once a day from day 0 of irradiation, Month 1): 36.11
Cell count of bronchial alveolar lavage liquid [8, 15]: 5.78
Measurement of hydroxyproline in the whole lung [8, 15]: 46.36
Cell count of bronchial alveolar lavage liquid [8, 16]: 1.04
Measurement of hydroxyproline in the whole lung [8, 16]: 52.13
Cell count of bronchial alveolar lavage liquid [8, 17]: 8.04
Measurement of hydroxyproline in the whole lung [8, 17]: 60.38
Cell count of bronchial alveolar lavage liquid [8, 18]: 45.55
Measurement of hydroxyproline in the whole lung [8, 18]: 67.92
Cell count of bronchial alveolar lavage liquid [8, 19]: 39.29
Measurement of hydroxyproline in the whole lung [8, 19]: 68.24

C[C@@H]1C[C@H]2[C@@H]3CCC4=CC(=O)C=C[C@]4(C)[C@@]3(F)[C@@H](O)C[C@]2(C)[C@@]1(O)C(=O)CO [dexamethasone]
Mortality rate [9, 20]: 64.3%
Number of dead animal [9, 20]: 9/14
Body weight ([9]; rat, in vivo): Loss of body weight
Lung Index (±S) [4]: 1083.90 ± 289.66
